Results as given in US20250144107A1, “USE OF A PIKFYVE INHIBITOR IN COMBINATION WITH IMMUNOTHERAPY” (The Regents of the University of Michigan, priority 2023, published 2025).

Tests used:
[1] = Body weight of treated tumor-bearing mice; assay type: in vivo; conditions: preclinical models; single agents and in combination with immunotherapies
From the text: FIG. 9B is a line graph of the body weight of pancreatic tumor bearing mice, orthotopically injected with KPC1361 cells and treated with an immune checkpoint inhibitor, apilimod, or ESK981 individually, or in combination with each other.
FIG. 11A is a line graph of mice body weight treated with adoptive cell therapy (ACT) in combination with apilimod or ESK981.
FIG. 11B is a line graph of mice body weight treated with personalized vaccines in combination with apilimod or ESK981

[2] = tested on: syngeneic pancreatic tumors established with orthotopic injection of KPC1361 cells; test: Orthotopic KPC1361 pancreatic tumor model with anti-PD-1; assay type: in vivo, mice; conditions: apilimod 60 mg/kg, ESK981 30 mg/kg oral gavage
From the text: FIG. 8B is a line graph of the efficacy of α-PD1 in combination with apilimod or ESK981 against pancreatic tumors from orthotopically injected KPC1361 cells to mice.
FIG. 8C (Left) is a line graph of flow cytometry measuring surface expression of MHC-I on GPF-labelled cancer cells in pancreatic tumors treated with α-PD1 in combination with apilimod or ESK981; (Right) is a bar graph of quantification of flow cytometry measuring surface expression of MHC-I on GPF-labelled cancer cells in pancreatic tumors treated with α-PD1 in combination with apilimod or ESK981.
FIG. 8D (left) is a series of 3 images of flow cytometry measuring the amount of total CD8^+ T cells, and proportion of activated or proliferative CD8^+ T cells in pancreatic tumors treated with α-PD1 in combination with apilimod or ESK981; (Right) are bar graphs of flow cytometry quantification of the amount of total CD8^+ T cells, and proportion of activated or proliferative CD8^+ T cells in pancreatic tumors treated with α-PD1 in combination with apilimod or ESK981.
FIG. 9A is a line graph of the survival of pancreatic tumor bearing mice, orthotopically injected with KPC1361 cells and treated with an immune checkpoint inhibitor, apilimod, or ESK981 individually, or in combination with each other.
All experimental protocols were conducted after approval by the U-M Institutional Animal Care & Use Committee. […] KPC1361 cells were resuspended in PBS, 1:1 (v/v) mixed with Matrigel (BD Biosciences; catalog #: 354248), and orthotopically injected to the pancreases at 250,000 cells in a total volume of 50 μl per injection. B16-F10 cells were resuspended in PBS and injected subcutaneously to both flanks at 400,000 cells per injection. For ACT study, B16-F10-OVA cells were resuspended in PBS and injected subcutaneously to both flanks at 300,000 cells per injection. For lung metastasis experiment, B16-BL6 cells were resuspended in PBS, 1:1 (v/v) mixed with Matrigel and injected subcutaneously to both flanks at 400,000 cells per injection. Fifteen days after tumor cell inoculation, the primary tumors were removed surgically under anesthesia. Thirty-five days after removal of the primary tumors, lung tissues were extracted and fixed, and lung metastasis was quantified. C57BL/6 mice were acquired from The Jackson Laboratory. Measurement of tumor volume began 5-9 days post tumor cell implantation and was performed 2-3 times per week using calipers. Volume measurements of pancreatic tumors were also achieved with calipers, as reported See, e.g., Koikawa, K. et al., Cell 2021; 184(18):4753-4771. In brief, mice were subjected to anesthesia with 2-3% isoflurane, and the abdominal wall then became soft and loose. […] Volume (mm^3) of tumor was calculated using (W^2×L)/2, where W stood for minor tumor axis and L for the major. […]

[3] = tested on: B16-BL6 melanoma model; test: B16-BL6 lung metastasis model after removal of primary tumors; assay type: in vivo, mice; conditions: for efficacy of ICB to inhibit metastasis: combination with ICB (anti-PD-1 plus anti-CTLA-4); for lung metastasis: treatment alone
Description: FIG. 8A (Left) is a box plot of tumor volume of the efficacy of immune checkpoint inhibitors in combination with apilimod or ESK981 treatment against metastasis in a subcutaneous B16BL6 tumor; (Middle) is a series of 12 images of the efficacy of immune checkpoint inhibitors in combination with apilimod or ESK981 treatment against metastasis in a subcutaneous B16BL6 tumor; (Right) is a box plot of the counts of lung tumor metastasis treated with immune checkpoint inhibitors in combination with apilimod or ESK981.
All experimental protocols were conducted after approval by the U-M Institutional Animal Care & Use Committee. […] KPC1361 cells were resuspended in PBS, 1:1 (v/v) mixed with Matrigel (BD Biosciences; catalog #: 354248), and orthotopically injected to the pancreases at 250,000 cells in a total volume of 50 μl per injection. B16-F10 cells were resuspended in PBS and injected subcutaneously to both flanks at 400,000 cells per injection. For ACT study, B16-F10-OVA cells were resuspended in PBS and injected subcutaneously to both flanks at 300,000 cells per injection. For lung metastasis experiment, B16-BL6 cells were resuspended in PBS, 1:1 (v/v) mixed with Matrigel and injected subcutaneously to both flanks at 400,000 cells per injection. Fifteen days after tumor cell inoculation, the primary tumors were removed surgically under anesthesia. Thirty-five days after removal of the primary tumors, lung tissues were extracted and fixed, and lung metastasis was quantified. C57BL/6 mice were acquired from The Jackson Laboratory. Measurement of tumor volume began 5-9 days post tumor cell implantation and was performed 2-3 times per week using calipers. Volume measurements of pancreatic tumors were also achieved with calipers, as reported See, e.g., Koikawa, K. et al., Cell 2021; 184(18):4753-4771. In brief, mice were subjected to anesthesia with 2-3% isoflurane, and the abdominal wall then became soft and loose. The mouse was next held with the left hand allowing for the palpation and assessment of the firm pancreatic tumor mass with the right hand. […] Volume (mm^3) of tumor was calculated using (W^2×L)/2, where W stood for minor tumor axis and L for the major. All mice were maintained in a pathogen-free condition, with a 12-hour light/dark cycle.
For ICB treatment in KPC1361 pancreatic tumor-bearing mice, randomization was performed when tumors reached approximately 100 mm^3. For ACT and vaccine experiments, the mice were randomized when tumors reached approximately 35 mm^3. Anti-mouse PD-1 (clone RMP1-14) and its isotype control were purchased from BioXcell, administered intraperitoneally at 250 μg per mouse, biweekly. […]

Compound | safety profile [1] | intratumoral activated CD8+ T cells [2] | tumor-specific MHC-I surface expression [2] | efficacy of ICB to inhibit metastasis [3] | lung metastasis [3]
CC(C)Cn1c2ccc(Nc3ncccn3)cc2c2c3c(c4c(c21)CCc1nn(C)cc1-4)C(=O)NC3 [ESK981, 13-isobutyl-4-methyl-10-(pyrimidin-2-ylamino)-1,2,4,7,8,13-hexahydro-6H-indazolo[5,4-a]pyrrolo[3,4-c]carbazol-6-one] | favorable safety profiles | increase | upregulation | strongly enhanced | reduction of lung metastasis
Cc1cccc(/C=N/Nc2cc(N3CCOCC3)nc(OCCc3ccccn3)n2)c1 [apilimod, N-[(E)-(3-methylphenyl)methylideneamino]-6-morpholin-4-yl-2-(2-pyridin-2-ylethoxy)pyrimidin-4-amine] | favorable safety profiles | increase | upregulation | strongly enhanced | reduction of lung metastasis
